Values joined by “and” are separate entries in the source; they are usually repeats but may differ in a detail not shown here. Equal entries are not always repeated.
Assays:
ECHCG = assay: Example V (second) postemergence foliar-applied ternary mixtures, greenhouse, direct seeded rice weeds; format: in vivo, Echinochloa crus-galli (L.) Beauv.
Procedure, shortened: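 Compound A (SC, acid equivalent), an ACCase inhibitor and a third herbicide were sprayed alone and as ternary mixtures postemergence at 187 L/ha with 1.25% v/v crop oil concentrate on greenhouse plants at the 1st–4th true leaf stage (29/26 °C day/night, ~14 h photoperiod). Injury was scored visually at ~3 weeks (0–100%) against untreated plants, and Colby's equation gave the expected mixture effects.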

LEFCH = assay: Example I postemergence foliar-applied, greenhouse, direct seeded rice weeds; format: in vivo, Leptochloa chinensis (L.) Nees
From the text: Seeds or nutlets of the desired test plant species were planted in a soil matrix prepared by mixing a loam or sandy loam soil (e.g., 28.6 percent silt, 18.8 percent clay, and 52.6 percent sand, with a pH of about 5.8 and an organic matter content of about 1.8 percent) and calcareous grit in an 80 to 20 ratio. The soil matrix was contained in plastic pots with a volume of 1 quart and a surface area of 83.6 square centimeters (cm^2). When required to ensure good germination and healthy plants, a fungicide treatment and/or other chemical or physical treatment was applied. The plants were grown for 8-22 days in a greenhouse with an approximate 14 hr. photoperiod which was maintained at about 29° C. during the day and 26° C. during the night. Nutrients (Peters Excel® 15-5-15 5-Ca 2-Mg and iron chelate) were applied in the irrigation solution as needed and water was added on a regular basis. Supplemental lighting was provided with overhead metal halide 1000-Watt lamps as necessary. The plants were employed for testing when they reached the first through fourth true leaf stage.
Treatments consisted of the acid or esters of 4-amino-3-chloro-5-fluoro-6-(4-chloro-2-fluoro-3-methoxy-phenyl)pyridine-2-carboxylic acid (Compound A), each formulated as an SC (suspension concentrate), and various herbicidal components alone and in combination.
Other herbicidal components were applied on an acid equivalent (ae) or active ingredient (ai) basis and included acetyl coA carboxylase (ACCase)-inhibiting herbicides (cyclohexanedione and aryloxyphenoxypropionate chemical classes) cyhalofop-butyl formulated as Clincher® SF (285 gr ai/L EC), diclofop-methyl formulated as Hoelon® 3EC, fenoxaprop-p-ethyl+isoxadifen-ethyl formulated as RiceStar® HT (0.58 lb./gal EC), fenoxaprop-p-ethyl+mefenpyr diethyl formulated as Puma® IEC, metamifop formulated as Metamifop EC, haloxyfop-methyl formulated as Gallant Super®, fluazifop-p-butyl formulated as Fusilade® DX, quizalofop-p-ethyl formulated as Assure® II, profoxydim formulated as Aura® 20EC, clethodim applied as Intensity®, sethoxydim formulated as Poast®, and tralkoxydim formulated as Achieve®.
Treatment requirements were calculated based upon the rates being tested, the concentration of active ingredient or acid equivalent in the formulation, and a 12 mL application volume at a rate of 187 L/ha.
For treatments comprised of formulated compounds, measured amounts of compounds were placed individually in 25 mL glass vials and diluted in a volume of 1.25% (v/v) Agri-Dex® crop oil concentrated to obtain 12× stock solutions. […] Application solutions were prepared by adding an appropriate amount of each stock solution (e.g., 1 mL) and diluted to the appropriate final concentrations with the addition of 10 mL of an aqueous mixture of 1.25% (v/v) crop oil concentrate so that the final spray solutions contained 1.25+/−0.05% (v/v) crop oil concentrate.
All stock solutions and applications solutions were visually inspected for compound compatibility prior to application. Spray solutions were applied to the plant material with an overhead Mandel track sprayer equipped with a 8002E nozzles calibrated to deliver 187 L/ha over an application area of 0.503 m^2 at a spray height of 18 to 20 inches (46 to 50 cm) above average plant canopy height. Control plants were sprayed in the same manner with the solvent blank.
The treated plants and control plants were placed in a greenhouse as described above and watered by sub-irrigation to prevent wash-off of the test compounds. After approximately 3 weeks, the condition of the test plants as compared with that of the untreated plants was determined visually and scored on a scale of 0 to 100 percent where 0 corresponds to no injury or growth inhibition and 100 corresponds to complete kill. […]

COc1c(Cl)ccc(-c2nc(C(=O)OCc3ccccc3)c(Cl)c(N)c2F)c1F [Compound A Benzyl Ester, benzyl ester of 4-amino-3-chloro-5-fluoro-6-(4-chloro-2-fluoro-3-methoxy-phenyl)pyridine-2-carboxylic acid]
Visual Weed Control (%) - 21 DAA ECHCG Obs (ECHCG; 2.19 gae/ha): 5%
Visual Weed Control (%) - 21 DAA ECHCG Obs (ECHCG; 4.38 gae/ha): 27%
Visual Weed Control (%) - 21 DAA ECHCG Obs (ECHCG; 8 gae/ha): 38% and 45%
Visual Weed Control (%) - 22 DAA ECHCG Obs (ECHCG; 8 gae/ha): 40%
Visual Weed Control (%) - 22 DAA ECHCG Obs (ECHCG; 16 gae/ha): 58%
Visual Weed Control (%) - 20 DAA LEFCH Obs (LEFCH; 4.38 gae/ha): 0%
Visual Weed Control (%) - 22 DAA LEFCH Obs (LEFCH; 8 gae/ha): 15%
Visual Weed Control (%) - 20 DAA LEFCH Obs (LEFCH; 8.75 gae/ha): 10%
Visual Weed Control (%) - 22 DAA LEFCH Obs (LEFCH; 16 gae/ha): 50%
Visual Weed Control (%) - 20 DAA LEFCH Obs (LEFCH; 17.5 gae/ha): 25%

CCCCOC(=O)[C@@H](C)Oc1ccc(Oc2ccc(C#N)cc2F)cc1 [Cyhalofop-butyl, butyl(2R)-2-[4-(4-cyano-2-fluorophenoxy)phenoxy]propanoate, reference compound]
Visual Weed Control (%) - 21 DAA ECHCG Obs (ECHCG; 17.5 gai/ha): 33%
Visual Weed Control (%) - 22 DAA ECHCG Obs (ECHCG; 17.5 gai/ha): 0%
Visual Weed Control (%) - 21 DAA ECHCG Obs (ECHCG; 35 gai/ha): 20%
Visual Weed Control (%) - 22 DAA ECHCG Obs (ECHCG; 35 gai/ha): 12%

CCC/C(=N\OCC(C)Oc1ccc(Cl)cc1)C1=C(O)CC(C2CCCSC2)CC1=O (stereo not shown) [Profoxydim, 2-[1-[[2-(4-chlorophenoxy)propoxy]imino]butyl]-3-hydroxy-5-(tetrahydro-2H-thiopyran-3-yl)-2-cyclohexen-1-one, reference compound]
Visual Weed Control (%) - 20 DAA LEFCH Obs (LEFCH; 12.5 gai/ha): 0%
Visual Weed Control (%) - 20 DAA LEFCH Obs (LEFCH; 25 gai/ha): 40%

Reference: US9232796B2, “Herbicidal compositions comprising 4-amino-3-chloro-5-fluoro-6-(4-chloro-2-fluoro-3-methoxyphenyl) pyridine-2-carboxylic acid or a derivative thereof and acetyl-CoA carboxylase (ACCase) inhibitors” (DOW AGROSCIENCES LLC, priority 2012, dated 2016)
